Data on 31 compounds can be found in patent US12281116B2, “HTT modulators for treating Huntington's disease” (CHDI Foundation, Inc., priority 2021, dated 2025).

This assay concerns tHTT (total HTT protein). The experiment in a line: Time-resolved FRET (HTRF) assay: Q48-Huntingtin and total-Huntingtin detection in GEN020 hESC lysates. The assay is classed as cell-based. The note with it: tHTT activity; human embryonic stem cells GEN020 (mutant 48 Q repeat allele); test compounds 48 hours; read-out: HTT Lowering Activity (HTRF). Here is the method: Time-resolved FRET assay: Q48-Huntingtin and total-Huntington detection Detection of endogenous HTT protein in cell lysates was performed using a protocol adapted from Weiss et al. See Weiss A et al. (2009). Single-step detection of mutant huntingtin in animal and human tissues: a bioassay for Huntington's disease. Anal. Biochem. 395(1): 8-15.
The multiplex assay was performed in human embryonic stem cells (GEN020 hESCs with mutant 48 Q repeat allele) which have been derived by Genea Biocells from human blastocysts of HD donors. Bradley C K et al. (2011). Derivation of Huntington's disease-affected human embryonic stem cell lines, Stem Cells Dev. 2011 March; 20(3):495-502. Cells were plated into 384-well collagen coated plates (10,000 cells per well) and left to adhere for 24 hours, test compounds were then added for 48 hours (37° C., 5% CO2), cells were then lysed, and the lysate was transferred to a black 384-well assay plate.
The assay plate included a combination of HTRF labelled monoclonal antibodies added to recognize discreet areas of the HTT protein, the Tb “donor” antibody (2B7-Tb: 0.2 ng/well) recognizes a sequence at the N-terminus of the protein, an Alexa488 “acceptor 1” antibody (MW1-Alexa488: 30 ng/well) recognizes an area in the polyQ region, whereas a d2 “acceptor 2” antibody (MAB2166-d2: 6 ng/well) recognizes a sequence beyond the polyQ region. These detection reagents were incubated with the cell lysate at room temperature for 4-6 hours before having their fluorescence quantified at 615 nm (donor) and 535 nm and 665 nm (acceptor 1 and 2 respectively). The donor/acceptor ratio between these signals indicated the relative quantities of mHTT and tHTT.
Results for various compounds described herein are provided in the Tables below. tHTT activity in this assay is categorized as 10-20 μM (−); 1-10 μM (+); 0.5-1 μM (++); 0.1-0.5 μM (+++); <0.1 μM (++++).
In general terms: In TR-FRET formats the signal depends on donor and acceptor labels being close together.

SMILES strings stand for the structures. pIC50: −log10 of the molar value. Where only a bound is given, the exact number is not on record here.

With `Cc1cn2cc(NC(=O)c3cnc(N4CC5C(C4)C5N4CCCC4)cn3)cc(F)c2n1` (stereo not shown) [Example 32, N-(8-Fluoro-2-methyl-imidazo[1,2-a]pyridin-6-yl)-5-(6-pyrrolidin-1-yl-3-azabicyclo[3.1.0]hexan-3-yl)pyrazine-2-carboxamide], the pIC50 was 6.00 to 6.30.

For the compound `Cn1cc2cc(NC(=O)c3cnc(N4CC[C@@H](NC5CC5)C4)cn3)c(OCC#N)cc2n1` [Example 7, (R)-N-(6-(cyanomethoxy)-2-methyl-2H-indazol-5-yl)-5-(3-(cyclopropylamino)pyrrolidin-1-yl)pyrazine-2-carboxamide], the pIC50 was 6.30 to 7.00.

Take `CN1CCCC2(C1)CN(c1cnc(C(=O)Nc3cc4cn(C)nc4cc3OCc3ccccc3)cn1)C2` [Example 10, N-(6-(benzyloxy)-2-methyl-2H-indazol-5-yl)-5-(6-methyl-2,6-diazaspiro[3.5]nonan-2-yl)pyrazine-2-carboxamide]: the pIC50 is 6.30 to 7.00.

Turning to `Cc1cn2cc(NC(=O)c3cnc(N4CC5C[C@]5(N)C4)cn3)cc(F)c2n1` (stereo partly drawn) [Example 36, 5-((1R)-1-amino-3-azabicyclo[3.1.0]hexan-3-yl)-N-(8-fluoro-2-methylimidazo[1,2-a]pyridin-6-yl)pyrazine-2-carboxamide], the pIC50 is 6.30 to 7.00.

Turning to `Cc1cn2cc(NC(=O)c3cnc(N4CC[C@H](NC5CC5)C4=O)cn3)cc(F)c2n1` [Example 44, (S)-5-(3-(cyclopropylamino)-2-oxopyrrolidin-1-yl)-N-(8-fluoro-2-methylimidazo[1,2-a]pyridin-6-yl)pyrazine-2-carboxamide], the pIC50 was 6.30 to 7.00.

With `Cc1nc2c(F)cc(NC(=O)c3cnc(N(C)C4CCNCC4)cn3)cc2o1` [Example 14, N-(4-fluoro-2-methylbenzo[d]oxazol-6-yl)-5-(methyl(piperidin-4-yl)amino)pyrazine-2-carboxamide], the pIC50 is 6.30 to 7.00.

Regarding `CC#CCOc1cc2nn(C)cc2cc1NC(=O)c1cnc(N2CC[C@@H](NC3CC3)C2)cn1` [Example 3, (R)-N-(6-(but-2-yn-1-yloxy)-2-methyl-2H-indazol-5-yl)-5-(3-(cyclopropylamino)pyrrolidin-1-yl)pyrazine-2-carboxamide], the pIC50 was 6.30 to 7.00.

With `Cc1cn2cc(NC(=O)c3cnc(N4CCC(N(C)C)C4=O)cn3)cc(F)c2n1` (single isomer, unassigned) [Example 39, (R*)-5-(3-(dimethylamino)-2-oxopyrrolidin-1-yl)-N-(8-fluoro-2-methylimidazo[1,2-a]pyridin-6-yl)pyrazine-2-carboxamide], the pIC50 is 6.00 to 6.30.

As to `Cc1cn2cc(NC(=O)c3cnc(N4CC(CNC5CC5)CC4=O)cn3)cc(F)c2n1` (single isomer, unassigned) [Example 41, (S*)-5-(4-((cyclopropylamino)methyl)-2-oxopyrrolidin-1-yl)-N-(8-fluoro-2-methylimidazo[1,2-a]pyridin-6-yl)pyrazine-2-carboxamide], the pIC50 is 6.00 to 6.30.

On to `Cc1cn2cc(NC(=O)c3cnc(N4CC[C@@H](NC5CC5)C4=O)cn3)cc(F)c2n1` [Example 43, (R)-5-(3-(cyclopropylamino)-2-oxopyrrolidin-1-yl)-N-(8-fluoro-2-methylimidazo[1,2-a]pyridin-6-yl)pyrazine-2-carboxamide], for which the pIC50 was 6.30 to 7.00.

As to `Cc1cn2cc(NC(=O)c3cnc(N4CC5C(N)C5C4)cn3)nc(C)c2n1` (stereo not shown) [Example 25], the pIC50 is 6.30 to 7.00.

Regarding `CNC1C2CN(c3cnc(C(=O)Nc4cc(F)c5nc(C)cn5c4)cn3)CC21` (stereo not shown) [Example 29, N-(8-Fluoro-2-methyl-imidazo[1,2-a]pyridin-6-yl)-5-[6-(methylamino)-3-azabicyclo[3.1.0]hexan-3-yl]pyrazine-2-carboxamide], the pIC50 is above 7.00.

Consider `Cc1cn2cc(NC(=O)c3cnc(N4CC(CN5CC(OCC(=O)NCCC6(CCN=[N+]=[N-])N=N6)C5)C4)cn3)cc(F)c2n1` [Example 45, 5-[3-[[3-[2-[2-[3-(2-azidoethyl)diazirin-3-yl]ethylamino]-2-oxo-ethoxy]azetidin-1-yl]methyl]azetidin-1-yl]-N-(8-fluoro-2-methyl-imidazo[1,2-a]pyridin-6-yl)pyrazine-2-carboxamide], for which the pIC50 is 6.00 to 6.30.

Take `Cc1cn2cc(NC(=O)c3cnc(N4CC5CC5(N)C4)cn3)cc(F)c2n1` (stereo not shown) [Example 28]: the pIC50 was 6.30 to 7.00.

With `Cc1cn2cc(NC(=O)c3cnc(N4CC5C[C@@]5(N)C4)cn3)cc(F)c2n1` (stereo partly drawn) [Example 35, 5-((1S)-1-amino-3-azabicyclo[3.1.0]hexan-3-yl)-N-(8-fluoro-2-methylimidazo[1,2-a]pyridin-6-yl)pyrazine-2-carboxamide], the pIC50 is 6.00 to 6.30.

For `CCNC1C2CN(c3cnc(C(=O)Nc4cn5cc(C)nc5c(OC)n4)cn3)CC21` (stereo not shown) [Example 34, 5-(6-(ethylamino)-3-azabicyclo[3.1.0]hexan-3-yl)-N-(8-methoxy-2-methylimidazo[1,2-a]pyrazin-6-yl)pyrazine-2-carboxamide], the pIC50 was 6.30 to 7.00.

With `Cn1cc2cc(NC(=O)c3cnc(N4CC[C@@H](NC5CC5)C4)cn3)c(OC(F)F)cc2n1` [Example 18], the pIC50 was 6.30 to 7.00.

As to `CN[C@@H]1CCN(c2cnc(C(=O)Nc3cc4cn(C)nc4cc3OCc3ccccc3)cn2)C1` [Example 8, (R)-N-(6-(benzyloxy)-2-methyl-2H-indazol-5-yl)-5-(3-(methylamino)pyrrolidin-1-yl)pyrazine-2-carboxamide], the pIC50 is above 7.00.

`Cn1cc2cc(NC(=O)c3cnc(N4CC[C@@H](NC5CC5)C4)cn3)c(OC3CCOCC3)cc2n1` [Example 2, (R)-5-(3-(cyclopropylamino)pyrrolidin-1-yl)-N-(2-methyl-6-((tetrahydro-2H-pyran-4-yl)oxy)-2H-indazol-5-yl)pyrazine-2-carboxamide]: the pIC50 was 6.00 to 6.30.

Turning to `Cn1cc2cc(NC(=O)c3cnc(N4CC[C@@H](NC5CC5)C4)cn3)c(OCC3CCOCC3)cc2n1` [Example 6, (R)-5-(3-(cyclopropylamino)pyrrolidin-1-yl)-N-(2-methyl-6-((tetrahydro-2H-pyran-4-yl)methoxy)-2H-indazol-5-yl)pyrazine-2-carboxamide], the pIC50 was 6.00 to 6.30.

As to `Cc1cn2cc(NC(=O)c3cnc(N4CC5C(C4)C5NC4CC4)cn3)cc(F)c2n1` (stereo not shown) [Example 37, 5-[6-(Cyclopropylamino)-3-azabicyclo[3.1.0]hexan-3-yl]-N-(8-fluoro-2-methyl-imidazo[1,2-a]pyridin-6-yl)pyrazine-2-carboxamide], the pIC50 is 6.30 to 7.00.

As for `COc1cc2nn(C)cc2cc1NC(=O)c1cnc(N2CC3C(N)C3C2)cn1` (stereo not shown) [Example 30, 5-(6-Amino-3-azabicyclo[3.1.0]hexan-3-yl)-N-(6-methoxy-2-methyl-indazol-5-yl)pyrazine-2-carboxamide], the pIC50 is above 7.00.

With `Cc1cn2cc(NC(=O)c3cnc(N4CC5C(N)C5C4)cn3)c(F)c(C)c2n1` (stereo not shown) [Example 27], the pIC50 is 6.30 to 7.00.

Regarding `CN[C@@H]1CCN(c2cnc(C(=O)Nc3cc(F)c4nc(C)nn4c3)cn2)C1` [Example 19, (R)-N-(8-fluoro-2-methyl-[1,2,4]triazolo[1,5-a]pyridin-6-yl)-5-(3-(methylamino)pyrrolidin-1-yl)pyrazine-2-carboxamide], the pIC50 is 6.30 to 7.00.

In the case of `C#CCOc1cc2nn(C)cc2cc1NC(=O)c1cnc(N2CC[C@@H](NC3CC3)C2)cn1` [Example 5, (R)-5-(3-(cyclopropylamino)pyrrolidin-1-yl)-N-(2-methyl-6-(prop-2-yn-1-yloxy)-2H-indazol-5-yl)pyrazine-2-carboxamide], the pIC50 was 6.30 to 7.00.

On to `Cc1cn2cc(NC(=O)c3cnc(N4CCC(C)(N)C4)cn3)cc(F)c2n1` (racemic) [Example 42, 5-(3-Amino-3-methyl-pyrrolidin-1-yl)-N-(8-fluoro-2-methyl-imidazo[1,2-a]pyridin-6-yl)pyrazine-2-carboxamide], for which the pIC50 is 6.30 to 7.00.

With `C#CCOc1cc2nn(C)cc2cc1NC(=O)c1cnc(N2CC3(CCCN(C)C3)C2)cn1` [Example 11, N-(2-methyl-6-(prop-2-yn-1-yloxy)-2H-indazol-5-yl)-5-(6-methyl-2,6-diazaspiro[3.5]nonan-2-yl)pyrazine-2-carboxamide], the pIC50 was 6.30 to 7.00.

For `COCCOc1cc2nn(C)cc2cc1NC(=O)c1cnc(N2CC[C@@H](NC3CC3)C2)cn1` [Example 9, (R)-5-(3-(cyclopropylamino)pyrrolidin-1-yl)-N-(6-(2-methoxyethoxy)-2-methyl-2H-indazol-5-yl)pyrazine-2-carboxamide], the pIC50 is 6.30 to 7.00.

Turning to `CN[C@@H]1CCN(c2cnc(C(=O)Nc3cc(Cl)n4nc(C)cc4c3)cn2)C1` [Example 15], the pIC50 was above 7.00.

Consider `CN[C@@H]1CCN(c2cnc(C(=O)Nc3cn4cc(C)nc4c(F)c3C)cn2)C1` [Example 21, (R)-N-(8-fluoro-2,7-dimethylimidazo[1,2-a]pyridin-6-yl)-5-(3-(methylamino)pyrrolidin-1-yl)pyrazine-2-carboxamide], for which the pIC50 is 6.30 to 7.00.

With `CCOc1cc2nn(C)cc2cc1NC(=O)c1cnc(N2CC(CN3CC(F)C3)C2)cn1` [Example 17], the pIC50 was 6.30 to 7.00.
